Laboratory results reported in US10761087B2, “Choroidal neovascularization suppressor or drusen formation suppressor, and method for assessing or screening for same” (Link Genomics, Inc., priority 2015, dated 2020).

Key:
Type in all cases: in vivo
C57BL/6J mouse = test: Mouse laser irradiation model: CNV assessment by fluorescent fundus photograph; conditions: 25 mg/kg orally once a day, versus Vehicle administration group
Description: (§1) It is known that laser irradiation of a mouse ocular fundus induces choroidal angiogenesis and EMT (Reference document: Ishikawa, et al, Exp Eye Res. 2016 January; 142:19.25). So, zaltoprofen was assessed for the suppressive effect of CNV and EMT by using a mouse laser irradiation model. A zaltoprofen suspension was prepared by stirring 0.15 g of zaltoprofen (available from TOKYO CHEMICAL […] CO., LTD.) and 0.75 g of gum arabic (available from Wako Pure Chemical Industries, Ltd.) in 60 mL of water. A medium (Vehicle) was prepared by dissolving and stirring 0.75 g of gum arabic in 60 mL of water. Then, an ocular fundus of a C57BL/6J mouse (8-week old, N=13) was laser-irradiated at four points for each eye under a slit lump using a multi-color laser light coagulator. From directly after irradiation, a vehicle or a zaltoprofen solution (25 mg/kg) was orally administered once a day for three weeks, and the following assessments were conducted. For (1) and (3), the same individual was used. After two weeks from laser irradiation, Fluorescite Injection 500 mg (Alcon Japan Ltd.) was administered (1 mL/kg) from the caudal vein, after about 1 minute from the administration, and a fluorescent fundus photograph was taken. Four points for each eye from the taken fluorescent fundus photograph were scored on the basis of the following assessment criteria. [Assessment Criteria] [table]

Vimentin = test: Mouse laser irradiation model: EMT assessment, Vimentin staining; conditions: 25 mg/kg orally once a day for three weeks
Description: as §1, with “three” for “two”, “mice were euthanatized by cervical dislocation, and eyeballs were extracted, and dipped and fixed in 4% paraformaldehyde phosphate buffer (available” for “Fluorescite Injection 500 mg (Alcon Japan Ltd.) was administered (1 mL/kg)”, “Wako Pure Chemical Industries, Ltd.). […]” for “the caudal vein, after about 1 minute from the administration, and a fluorescent fundus photograph was taken. Four points for each eye from the taken fluorescent fundus photograph were scored on the basis of the following assessment criteria. [Assessment Criteria] [table]”

Collagen Type 1 = test: Mouse laser irradiation model: EMT assessment, Collagen Type 1 staining; conditions: 25 mg/kg orally once a day for three weeks
Description: as §1, with “three” for “two”, “mice were euthanatized by cervical dislocation, and eyeballs were extracted, and dipped and fixed in 4% paraformaldehyde phosphate buffer (Wako Pure Chemical Industries, Ltd.). […] The specimen” for “Fluorescite Injection 500 mg (Alcon Japan Ltd.)”, “subjected to photography of a stained image by” for “administered (1 mL/kg) from”, “anti-Collagen Type” for “caudal vein, after about”, “antibody under a microscope,” for “minute from the administration,”, “then quantitatively assessed.” for “a fluorescent fundus photograph was taken. Four points for each eye from the taken fluorescent fundus photograph were scored on the basis of the following assessment criteria. [Assessment Criteria] [table]”

CC(C(=O)O)c1ccc2c(c1)CC(=O)c1ccccc1S2 (stereo not drawn) [Zaltoprofen, zaltoprofen]
CNV by laser irradiation (fluorescent fundus photographs) (C57BL/6J mouse; FIG. 22): significantly suppressed | CNV score by laser irradiation (C57BL/6J mouse; two weeks after laser irradiation): significantly lower | EMT in the laser irradiation model (Vimentin): suppresses EMT | Vimentin positive area (Vimentin; versus Vehicle administration group): reduced | EMT suppressive effect (Collagen Type 1 assessment) (Collagen Type 1): significant suppressive effect for EMT | Stained volume of Collagen Type 1 (Collagen Type 1; versus Vehicle administration group, p<0.05): significantly decreases
